Laboratory results as given in ChEMBL document CHEMBL3112394, “Identification of the 5,5-dioxo-7,8-dihydro-6H-thiopyrano[3,2-d]pyrimidine derivatives as highly selective PDE4B inhibitors” (Bioorg Med Chem Lett, 2014).

Columns and labels:
[1] = target: 3',5'-cyclic-AMP phosphodiesterase 4B (Homo sapiens, UniProt Q07343); assay: Inhibition of full-length human PDE4B2 assessed as cAMP hydrolysis preincubated for 20 mins followed by cAMP addition measured after 30 mins
Homo sapiens [2] = species on record: Homo sapiens; assay: Selectivity ratio of IC50 for full-length human PDE4D2 to IC50 for full-length human PDE4B2
[3] = target: T1, 3',5'-cyclic-AMP phosphodiesterase 4D (Homo sapiens, UniProt Q08499); assay: Inhibition of full-length human PDE4D2 assessed as cAMP hydrolysis preincubated for 20 mins followed by cAMP addition measured after 30 mins
[4] = Antiinflammatory activity in Balb/c mouse splenocytes assessed as inhibition of LPS-induced TNF-alpha production after 18 to 24 hrs; assay type: functional, cell-based; settings: Splenocyte
[5] = Terminal half life in mouse at 10 mg/kg, po; assay type: ADME, organism-based; set-up: dose 10 mg/kg, route oral; settings: in vivo, read-out: beta t1/2 (converted)
[6] = Cmax in mouse at 10 mg/kg, po; assay type: ADME, organism-based; set-up: dose 10 mg/kg, route oral; settings: in vivo
[7] = 1-octanol-phosphate buffered saline distribution coefficient, log D of the compound at 200 uM at pH 7.4 after 30 mins by shake flask method; assay type: physicochemical
[8] = Permeability of the compound at 50 uM at pH 7.4 after 4 hrs by PAMPA; assay type: ADME; settings: read-out: permeability
[9] = AUC in mouse at 10 mg/kg, po; assay type: ADME, organism-based; set-up: dose 10 mg/kg, route oral; settings: plasma
[10] = target: T1, 3',5'-cyclic-AMP phosphodiesterase 4D; assay: Inhibition of recombinant human PDE4D (78 to 508)
Homo sapiens [11] = species on record: Homo sapiens; assay: Selectivity ratio of IC50 for recombinant human PDE4D (78 to 508) to IC50 for recombinant human PDE4B (152 to 564)

T1 sequence (Q08499 whole entry): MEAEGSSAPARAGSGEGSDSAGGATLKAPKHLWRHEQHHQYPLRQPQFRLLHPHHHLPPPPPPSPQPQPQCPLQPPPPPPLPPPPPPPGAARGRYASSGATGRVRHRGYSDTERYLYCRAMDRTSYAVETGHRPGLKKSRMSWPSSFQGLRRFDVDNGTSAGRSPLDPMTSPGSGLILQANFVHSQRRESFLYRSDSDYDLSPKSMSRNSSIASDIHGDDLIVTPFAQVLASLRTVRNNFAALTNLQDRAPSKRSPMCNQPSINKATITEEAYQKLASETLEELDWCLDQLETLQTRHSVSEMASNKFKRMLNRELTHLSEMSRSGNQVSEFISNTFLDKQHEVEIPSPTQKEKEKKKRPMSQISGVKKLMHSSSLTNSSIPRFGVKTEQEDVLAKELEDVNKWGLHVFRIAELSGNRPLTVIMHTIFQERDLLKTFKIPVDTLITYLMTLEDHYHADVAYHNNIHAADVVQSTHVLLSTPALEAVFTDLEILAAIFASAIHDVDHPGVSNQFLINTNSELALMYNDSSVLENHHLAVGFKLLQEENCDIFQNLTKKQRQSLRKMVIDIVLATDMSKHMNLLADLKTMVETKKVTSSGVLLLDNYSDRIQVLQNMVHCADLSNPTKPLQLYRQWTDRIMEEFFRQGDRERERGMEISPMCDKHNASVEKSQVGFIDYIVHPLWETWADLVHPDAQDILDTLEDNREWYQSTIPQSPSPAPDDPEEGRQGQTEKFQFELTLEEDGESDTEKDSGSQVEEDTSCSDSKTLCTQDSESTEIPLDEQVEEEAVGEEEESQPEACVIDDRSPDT
Sequence of 3',5'-cyclic-AMP phosphodiesterase 4B (Q07343 whole entry): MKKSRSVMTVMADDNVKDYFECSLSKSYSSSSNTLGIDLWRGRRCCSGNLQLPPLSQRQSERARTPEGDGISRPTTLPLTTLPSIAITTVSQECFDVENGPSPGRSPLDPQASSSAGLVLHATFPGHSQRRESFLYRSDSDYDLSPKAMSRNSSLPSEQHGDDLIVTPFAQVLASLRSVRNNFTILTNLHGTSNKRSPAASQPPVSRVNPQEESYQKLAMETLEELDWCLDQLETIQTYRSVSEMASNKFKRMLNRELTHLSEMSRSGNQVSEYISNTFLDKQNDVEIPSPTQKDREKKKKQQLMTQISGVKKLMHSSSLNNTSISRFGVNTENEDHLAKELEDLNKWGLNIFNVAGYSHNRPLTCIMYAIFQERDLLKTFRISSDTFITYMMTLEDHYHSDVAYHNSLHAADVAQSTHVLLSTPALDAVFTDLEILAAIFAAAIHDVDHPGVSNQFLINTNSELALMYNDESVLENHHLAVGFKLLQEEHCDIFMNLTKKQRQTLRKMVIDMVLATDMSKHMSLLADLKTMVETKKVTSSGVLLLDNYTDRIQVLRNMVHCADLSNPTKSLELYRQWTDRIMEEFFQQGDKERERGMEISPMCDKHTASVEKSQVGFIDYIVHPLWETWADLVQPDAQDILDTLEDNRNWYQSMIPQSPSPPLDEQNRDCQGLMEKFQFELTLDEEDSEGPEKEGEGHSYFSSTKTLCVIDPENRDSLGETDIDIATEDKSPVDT

Structure (SMILES) | IC50 [1] | Ratio IC50 (Homo sapiens [2]) | IC50 [3] | also measured
COc1ccc(-c2nc3c(c(Nc4cc(F)c(CC(=O)O)c(F)c4)n2)S(=O)(=O)CCC3)cc1F | 5.2 nM | 112 | 580 nM | –
O=C(O)Cc1ccc(Nc2nc(-c3cc4ccccc4o3)nc3c2S(=O)(=O)CCC3)cc1 | 20 nM | 55 | 1100 nM | –
O=C(O)Cc1ccc(Nc2nc(-c3cccc(F)c3)nc3c2SCCC3)cc1 | 57 nM | 12 | 680 nM | –
O=C(O)Cc1ccc(Nc2nc(-c3ccc4c(F)cccc4c3)nc3c2S(=O)(=O)CCC3)cc1 | 14 nM | 31 | 440 nM | –
O=C(O)Cc1ccc(Nc2nc(-c3ccc4ccccc4c3)nc3c2S(=O)(=O)CCC3)cc1F | 5.9 nM | 137 | 810 nM | IC50 [4]: 44 nM
COc1ccc(-c2nc3c(c(Nc4ccc(CC(=O)O)cc4)n2)S(=O)(=O)CCC3)cc1 | 44 nM | 34 | 1500 nM | –
CN(C)c1ccc(-c2nc3c(c(Nc4ccc(CC(=O)O)cc4)n2)SCCC3)cc1 | 38 nM | 21 | 790 nM | –
CC(=O)c1ccc(-c2nc3c(c(Nc4ccc(CC(=O)O)cc4)n2)S(=O)(=O)CCC3)cc1 | 10 nM | 86 | 860 nM | –
CN(C)c1ccc(-c2nc3c(c(Nc4ccc(CC(=O)O)cc4)n2)S(=O)(=O)CCC3)cc1 | 38 nM | 55 | 2100 nM | –
N#Cc1ccc(-c2nc3c(c(Nc4ccc(CC(=O)O)cc4)n2)SCCC3)cc1 | 30 nM | 9.7 | 290 nM | –
O=C(O)Cc1ccc(Nc2nc(-c3ccc(Cl)cc3)nc3c2SCCC3)cc1 | 120 nM | 3.5 | 420 nM | –
COc1ccc(-c2nc3c(c(Nc4ccc(CC(=O)O)cc4)n2)S(=O)(=O)CCC3)cn1 | 250 nM | 15 | 3800 nM | –
COc1ccc(-c2nc3c(c(Nc4ccc(CC(=O)O)c(F)c4)n2)S(=O)(=O)CCC3)c(F)c1F | 8.2 nM | 171 | 1400 nM | IC50 [4]: 131 nM
O=C(O)Cc1ccc(Nc2nc(-c3ccc(F)cc3)nc3c2SCCC3)cc1 | 120 nM | 8.3 | 1000 nM | –
COc1ccc(-c2nc3c(c(Nc4ccc(CC(=O)O)c(F)c4)n2)S(=O)(=O)CCC3)cc1F | 4.6 nM | 135 | 620 nM | half-life [5]: 2 h; Cmax [6]: 1700 ng/mL; logD at 0.5 h, 200 µM [7]: 0.8; IC50 [4]: 18 nM; Papp at 4 h, 50 µM [8]: 14.3 ×10⁻⁶ cm/s; AUC [9]: 2770 ng·h/mL
COc1ccc(-c2nc3c(c(Nc4cc(Cl)c(CC(=O)O)cc4Cl)n2)S(=O)(=O)CCC3)cc1F | 49 nM | 12 | 600 nM | –
COc1ccc(-c2nc3c(c(Nc4ccc(CC(=O)O)cc4)n2)SCCC3)cn1 | 140 nM | 53 | 7400 nM | –
COc1cccc2cc(-c3nc4c(c(Nc5ccc(CC(=O)O)cc5)n3)S(=O)(=O)CCC4)ccc12 | 30 nM | 9.7 | 290 nM | –
COc1ccc(-c2nc3c(c(Nc4ccc(CC(=O)O)c(F)c4)n2)S(=O)(=O)CCC3)cc1 | 7.5 nM | 173 | 1300 nM | IC50 [4]: 96 nM
O=C(O)Cc1ccc(Nc2nc(-c3ccccc3)nc3c2S(=O)(=O)CCC3)cc1 | 150 nM | 3.7 | 550 nM | IC50 [10]: 2800 nM; Ratio IC50 (Homo sapiens [11]): 112
COc1ccc(-c2nc3c(c(Nc4ccc(CC(=O)NCC(C)(C)C)cc4)n2)S(=O)(=O)CCC3)cc1F | 78 nM | 3.8 | 300 nM | –

Structure (SMILES) | IC50 [1] | Ratio IC50 (Homo sapiens [2]) | IC50 [3] | also measured
COc1ccc(-c2nc3c(c(Nc4cc(F)c(CC(=O)O)cc4F)n2)S(=O)(=O)CCC3)cc1F | 16 nM | 81 | 1300 nM | –
O=C(O)Cc1ccc(Nc2nc(-c3cc4ccccc4s3)nc3c2S(=O)(=O)CCC3)cc1 | 8.3 nM | 48 | 400 nM | –
O=C(O)Cc1ccc(Nc2nc(-c3ccccc3F)nc3c2SCCC3)cc1 | 880 nM | 3.9 | 3400 nM | –
O=C(O)Cc1ccc(Nc2nc(-c3ccccc3)nc3c2SCCC3)cc1 | 210 nM | 6.2 | 1300 nM | IC50 [10]: 1300 nM; Ratio IC50 (Homo sapiens [11]): 45
COc1ccc(-c2nc3c(c(Nc4ccc(CC(=O)O)cc4)n2)S(=O)(=O)CCC3)cc1Cl | 13 nM | 100 | 1300 nM | –
COc1ccc(-c2nc3c(c(Nc4ccc(CC(=O)O)cc4)n2)SCCC3)cc1Cl | 71 nM | 6.1 | 430 nM | –
COc1ccc(-c2nc3c(c(Nc4ccc(CC(=O)O)cc4)n2)SCCC3)c(F)c1F | 140 nM | 16 | 2200 nM | –
COc1ccc(-c2nc3c(c(Nc4ccc(CC(=O)O)cc4)n2)S(=O)(=O)CCC3)cc1F | 10 nM | 100 | 1000 nM | –
CC(=O)c1ccc(-c2nc3c(c(Nc4ccc(CC(=O)O)cc4)n2)SCCC3)cc1 | 34 nM | 29 | 1000 nM | –
COc1ccc(-c2nc3c(c(Nc4cc(F)c(CC(=O)O)cc4Cl)n2)S(=O)(=O)CCC3)cc1F | 9.9 nM | 57 | 560 nM | –
O=C(O)Cc1ccc(Nc2nc(-c3cc4ccccc4s3)nc3c2S(=O)(=O)CCC3)cc1F | 3.8 nM | 158 | 600 nM | IC50 [4]: 11 nM
COc1ccc(-c2nc3c(c(Nc4ccc(CC(=O)O)c(F)c4)n2)S(=O)(=O)CCC3)cc1Cl | 3 nM | 433 | 1300 nM | IC50 [4]: 11 nM
CN(C)c1ccc(-c2nc3c(c(Nc4ccc(CC(=O)O)cc4)n2)SCCC3)cn1 | 140 nM | 11 | 1600 nM | –
COc1ccc(-c2nc3c(c(Nc4ccc(CC(=O)O)c(Cl)c4)n2)S(=O)(=O)CCC3)cc1F | 64 nM | 20 | 1300 nM | –
O=C(O)Cc1ccc(Nc2nc(-c3ccc4ccccc4c3)nc3c2S(=O)(=O)CCC3)cc1 | 19 nM | 27 | 520 nM | –
CN(C)c1ccc(-c2nc3c(c(Nc4ccc(CC(=O)O)cc4)n2)S(=O)(=O)CCC3)cn1 | 56 nM | 21 | 1200 nM | –
COc1ccc(-c2nc3c(c(Nc4ccc(CC(=O)O)cc4)n2)S(=O)(=O)CCC3)c(F)c1F | 46 nM | 74 | 3400 nM | –
COc1ccc(-c2nc3c(c(Nc4ccc(CC(=O)O)cc4)n2)SCCC3)cc1 | 11 nM | 25 | 280 nM | –
CCCCNC(=O)Cc1ccc(Nc2nc(-c3ccccc3)nc3c2S(=O)(=O)CCC3)cc1 | 70 nM | 2.6 | 180 nM | IC50 [10]: 260 nM; Ratio IC50 (Homo sapiens [11]): 12
COc1cccc(-c2nc3c(c(Nc4ccc(CC(=O)O)cc4)n2)SCCC3)c1 | 120 nM | 15 | 1800 nM | –
O=C(O)Cc1ccc(Nc2nc(-c3ccc(-c4ccccc4)cc3)nc3c2S(=O)(=O)CCC3)cc1 | 38 nM | 21 | 790 nM | –
